“Also recorded” adds a separate entry of the source. Like-named read-outs stand apart in the source and are kept apart here.
How the values were obtained:
SIRT2 [1] = molecular target: T1, SIRT2 (Homo sapiens, UniProt Q8IXJ6); assay: SIRT2 enzymatic assay with fluorogenic p53 peptide substrate RHKK(Ac)-AMC; assay type: biochemical; conditions: for increase in potency over 9a: SIRT2 IC50 ratio to 9a
T1 sequence (Q8IXJ6 1-389): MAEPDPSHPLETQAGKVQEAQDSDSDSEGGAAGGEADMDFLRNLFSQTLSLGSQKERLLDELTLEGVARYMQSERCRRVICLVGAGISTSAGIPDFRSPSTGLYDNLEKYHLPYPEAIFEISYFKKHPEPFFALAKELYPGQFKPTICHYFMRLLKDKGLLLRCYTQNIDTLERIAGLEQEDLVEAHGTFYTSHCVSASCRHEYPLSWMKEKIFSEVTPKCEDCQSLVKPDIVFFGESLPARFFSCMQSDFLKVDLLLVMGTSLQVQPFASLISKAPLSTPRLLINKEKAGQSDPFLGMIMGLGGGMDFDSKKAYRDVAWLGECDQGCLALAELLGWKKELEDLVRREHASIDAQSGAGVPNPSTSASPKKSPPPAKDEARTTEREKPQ
Procedure: The newly synthesized analogues, based on our previously validated thienopyrimidinone scaffold, were designed to contain a variety of N-3 (columns a–i, Table 1) and N-7′ substituents (rows 9–49, Table 1), with the aim to conduct a relatively broad survey of the SAR features of this scaffold. These compounds were all synthesized according to the previously disclosed method[81] (Schemes SS1 and SS2, Supporting Information) and assessed as racemates. SIRT2 inhibitory activity was assessed using a validated SIRT2 assay, based on a fluorogenic peptide substrate derived from p53 (see Experimental Section). For this assay, suramin was used as a positive control and gave similar inhibitory activity to that observed previously.[83] A vehicle (DMSO) was used as the negative control. SIRT2 inhibitory activity was measured at two compound concentrations, 1 μM (n = 2) and 10 μM (n = 2) for all compounds.
Enzymatic assays were performed by Reaction Biology Corporation (http://www.reactionbiology.com) as described before.[81] In vitro SIRT assays were conducted by using the fluorogenic peptide substrate from p53 residues 379–382 RHKK(Ac)-AMC for SIRT1–3. The assay buffer contained 50 mM Tris-HCl, pH 8.0, 137 mM NaCl, 2.7 mM KCl, 1 mM MgCl2, 1 mg mL^–1 bovine serum albumin, and 1% DMSO. The protocol involved a two-step procedure. The fluorogenic substrate with the acetylated lysine side chain was incubated with the SIRT enzyme to produce the deacetylated products, which were then digested in the second step by the addition of a developer to produce the fluorescent signal proportional to the amount of deacetylated substrates. Deacetylation of substrate peptides was used as a read out of the SIRT activity. All compounds were freshly prepared as 10 mM stock solutions in DMSO and serially diluted to the indicated concentration in the reaction. All test compounds were preincubated with the human SIRTs for about 10 min before commencing the reaction through the addition of substrate. Fluorescence was read (λex, 360 nm; λem, 460 nm) using an EnVision Multilabel Plate Reader (PerkinElmer). The percentages of enzyme activity (relative to DMSO controls) and IC50 values were calculated using the GraphPad Prism 4 program based on a sigmoidal dose–response equation. The number of replicates is stated in the corresponding text.

SIRT1 [2] = molecular target: T2, SIRT1 (Homo sapiens, UniProt Q96EB6); assay: SIRT1 enzymatic assay with fluorogenic p53 peptide substrate RHKK(Ac)-AMC; assay type: biochemical; conditions: Table 3
T2 sequence (Q96EB6 1-747): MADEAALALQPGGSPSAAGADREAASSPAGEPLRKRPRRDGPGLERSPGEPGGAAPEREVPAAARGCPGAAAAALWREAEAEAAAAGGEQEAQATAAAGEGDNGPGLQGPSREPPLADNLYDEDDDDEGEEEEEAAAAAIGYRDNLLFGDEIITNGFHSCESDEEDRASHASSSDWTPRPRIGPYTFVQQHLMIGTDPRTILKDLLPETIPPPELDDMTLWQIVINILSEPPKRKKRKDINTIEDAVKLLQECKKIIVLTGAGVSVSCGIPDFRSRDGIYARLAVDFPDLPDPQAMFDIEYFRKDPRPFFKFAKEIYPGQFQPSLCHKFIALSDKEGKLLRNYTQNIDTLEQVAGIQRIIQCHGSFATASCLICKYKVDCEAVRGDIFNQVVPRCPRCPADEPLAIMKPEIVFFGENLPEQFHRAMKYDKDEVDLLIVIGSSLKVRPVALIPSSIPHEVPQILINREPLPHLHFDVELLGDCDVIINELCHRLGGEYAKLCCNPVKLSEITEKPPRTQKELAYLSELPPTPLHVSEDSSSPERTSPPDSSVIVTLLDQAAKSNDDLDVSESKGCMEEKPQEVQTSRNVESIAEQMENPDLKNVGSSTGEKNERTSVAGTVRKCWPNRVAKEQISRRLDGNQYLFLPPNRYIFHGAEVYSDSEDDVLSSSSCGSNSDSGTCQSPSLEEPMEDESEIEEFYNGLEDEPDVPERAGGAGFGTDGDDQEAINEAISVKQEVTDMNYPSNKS

SIRT3 [3] = molecular target: T3, SIRT3 (Homo sapiens, UniProt Q9NTG7); assay: SIRT3 enzymatic assay with fluorogenic p53 peptide substrate RHKK(Ac)-AMC; assay type: biochemical; conditions: Table 3
T3 sequence (Q9NTG7 1-399): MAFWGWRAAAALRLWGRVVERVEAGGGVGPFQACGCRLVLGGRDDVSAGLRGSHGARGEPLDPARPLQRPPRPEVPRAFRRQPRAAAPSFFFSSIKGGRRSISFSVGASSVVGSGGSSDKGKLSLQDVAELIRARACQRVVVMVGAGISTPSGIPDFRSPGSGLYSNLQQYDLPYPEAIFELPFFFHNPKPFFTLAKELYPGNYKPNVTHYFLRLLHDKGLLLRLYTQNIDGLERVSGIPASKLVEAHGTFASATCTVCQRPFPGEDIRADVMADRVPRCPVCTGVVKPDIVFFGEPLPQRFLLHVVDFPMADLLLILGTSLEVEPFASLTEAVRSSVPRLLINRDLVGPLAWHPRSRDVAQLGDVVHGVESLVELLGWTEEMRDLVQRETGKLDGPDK

[4] = system: acetylated (lysine-40) α-tubulin in MCF-7 cells; assay: Tubulin acetylation assay, Western blot in MCF-7 cells with TSA; conditions: 0-50 μM for 24 h with 50 nM TSA, N = 3
SIRT1 [5] = conditions: Figure 1, cited from earlier work; for IC50: differing in vitro assays and conditions
SIRT2 [6] = system: SIRT2; parameters: method as in PMID 15780941, PMID 26982234, PMID 25275824, PMID 11483616, PMID 16618762; conditions: Figure 1; differing in vitro assays and conditions; cited from earlier work
SIRT3 [7] = conditions: Figure 1, cited from earlier work
SIRT6 = system: SIRT6; parameters: method as in PMID 25672491; conditions: Figure 1; cited from earlier work
[8] = supplement CSV, SIRT2, 10uM, read-out: Inhibition@10uM

6-(2-Aminoethyl)-3-((2-methoxynaphthalen-1-yl) methyl)-5-methylthieno [2,3-d] pyrimidin-4(3H)-one [56a]
SIRT2 inhibitory activity (in words) (SIRT2 [1]): inactive
SIRT2 percentage inhibition (at 10 μM) (SIRT2 [1]; Table 2 middle value, 10 μM compound): 25%
Inhibition@10uM (SIRT2 [1]; supplement CSV, SIRT2, 10uM): 24.87

COc1ccc(Cn2cnc3sc4c(c3c2=O)CCC(NCc2cccc(Cl)c2)C4)c2ccccc12 (stereo not shown) [12c]
inhibition at 10 µM (SIRT2 [1]; 10 μM compound, n = 2, read-out: SIRT2 percentage inhibition (at 10 μM)): -6.5%
inhibition at 10 µM (SIRT2 [1]; [8]): -6.5%

N#Cc1ccc(CNC2CCc3c(sc4ncn(Cc5cccc6cccnc56)c(=O)c34)C2)cc1 (stereo not shown) [15e, 4-(((4-Oxo-3-(quinolin-8-ylmethyl)-3,4,5,6,7,8-hexahydrobenzo[4,5]thieno[2,3-d]pyrimidin-7-yl)amino)methyl)benzonitrile]
SIRT2 selectivity over SIRT1 (SIRT1 [2]): more than 100 fold
SIRT2 selectivity over SIRT3 (SIRT3 [3]): more than 100 fold
SIRT2/SIRT3 selectivity (SIRT3 [3]; ratio of IC50 values): >256

COc1ccccc1CNC1CCc2c(sc3ncn(Cc4c(OC)ccc5ccccc45)c(=O)c23)C1 (stereo not shown) [16a]
increase in potency over 9a (SIRT2 [1]): 9 fold

COc1ccc(CNC2CCc3c(sc4ncn(Cc5c(OC)ccc6ccccc56)c(=O)c34)C2)cc1 (stereo not shown) [18a]
increase in potency over 9a (SIRT2 [1]): 32 fold

O=c1c2c3c(sc2ncn1Cc1ccccc1)CC(NCc1ccncc1)CC3 (stereo not shown) [20g]
inhibition at 10 µM (SIRT2 [1]; [8]): 32.6%

COc1cccc(Cn2cnc3sc4c(c3c2=O)CCC(NCc2ccncc2)C4)c1 (stereo not shown) [20h]
inhibition at 10 µM (SIRT2 [1]; [8]): 57.6%

COc1cccc(Cn2cnc3sc4c(c3c2=O)CCC(NCc2ccccn2)C4)c1 (stereo not shown) [21h]
inhibition at 10 µM (SIRT2 [1]; [8]): 18.2%

O=c1c2c3c(sc2ncn1Cc1ccccc1)CC(NCc1cncnc1)CC3 (stereo not shown) [22g]
inhibition at 10 µM (SIRT2 [1]; [8]): 17.5%

COc1cccc(Cn2cnc3sc4c(c3c2=O)CCC(NCc2cncnc2)C4)c1 (stereo not shown) [22h]
inhibition at 10 µM (SIRT2 [1]; [8]): 18.3%

COc1ccc(CNC2CCc3c(sc4ncn(Cc5c(OC)ccc6ccccc56)c(=O)c34)C2)cn1 (stereo not shown) [23a]
inhibition at 10 µM (SIRT2 [1]; [8]): 87.9%

O=c1c2c3c(sc2ncn1Cc1ccccc1)CC(NCC1CCCO1)CC3 (stereo not shown) [25g]
SIRT2 inhibitory activity (in words) (SIRT2 [1]): lacking in vitro activity against SIRT2
effect on α-tubulin acetylation level [4]: no effect on tubulin acetylation levels; also recorded: showed no effect on the acetylation of α-tubulin

COc1cccc(Cn2cnc3sc4c(c3c2=O)CCC(NCC2CCCO2)C4)c1 (stereo not shown) [25h]
inhibition at 10 µM (SIRT2 [1]; [8]): 3.44%

COc1cccc(Cn2cnc3sc4c(c3c2=O)CCC(NCc2c(C)nn(C)c2C)C4)c1 (stereo not shown) [27h]
inhibition at 10 µM (SIRT2 [1]; [8]): 14.4%

COc1cccc(Cn2cnc3sc4c(c3c2=O)CCC(NCc2ccco2)C4)c1 (stereo not shown) [28h]
inhibition at 10 µM (SIRT2 [1]; [8]): 33.4%

COc1ccc(Cn2cnc3sc4c(c3c2=O)CCC(NCc2c(C)noc2C)C4)c2ccccc12 (stereo not shown) [29c]
SIRT2 selectivity over SIRT1 (SIRT1 [2]): > 200 fold
SIRT2 selectivity over SIRT3 (SIRT3 [3]): ~30 fold
effect on α-tubulin acetylation level [4]: increased levels of α-tubulin acetylation in a dose dependent manner; also recorded: increased the α-tubulin acetylation level at 10 μM and retained consistent to 50 μM

O=c1c2c3c(sc2ncn1Cc1ccccc1)CC(NCCc1cccnc1)CC3 (stereo not shown) [31g]
inhibition at 10 µM (SIRT2 [1]; [8]): 26.7%

COc1cccc(Cn2cnc3sc4c(c3c2=O)CCC(NCCc2cccnc2)C4)c1 (stereo not shown) [31h]
inhibition at 10 µM (SIRT2 [1]; [8]): 40.5%

COc1ccccc1NC1CCc2c(sc3ncn(Cc4cccc5ccccc45)c(=O)c23)C1 (stereo not shown) [35b]
inhibition at 10 µM (SIRT2 [1]; [8]): 22.3%

COc1ccccc1NC1CCc2c(sc3ncn(Cc4cccc(-c5ccccc5)c4)c(=O)c23)C1 (stereo not shown) [35i]
inhibition at 10 µM (SIRT2 [1]; [8]): 26.4%

COc1cccc(NC2CCc3c(sc4ncn(Cc5cccc(-c6ccccc6)c5)c(=O)c34)C2)c1 (stereo not shown) [37i]
inhibition at 10 µM (SIRT2 [1]; [8]): 29.6%

O=c1c2c3c(sc2ncn1Cc1cccc2cccnc12)CC(NC1CCCC1)CC3 (stereo not shown) [41e]
inhibition at 10 µM (SIRT2 [1]; [8]): 30.5%

O=c1c2c3c(sc2ncn1Cc1cccc(-c2ccccc2)c1)CC(NC1CCCc2ccccc21)CC3 (stereo not shown) [46i]
inhibition at 10 µM (SIRT2 [1]; [8]): 21.6%

COc1ccc2ccccc2c1Cn1cnc2sc(CCN(C)C)c(C)c2c1=O [57a]
SIRT2 inhibitory activity (in words) (SIRT2 [1]): inactive

N#C/C(=C\c1ccc(-c2cc(Cl)ccc2Cl)o1)C(=O)Nc1cccc2ncccc12 [AGK2]
effect on α-tubulin acetylation level [4]: showed significant increase of α-tubulin acetylation at 10 to 50 μM
IC50 (SIRT1 [5]): > 50000 nM

O=c1[nH]c(=S)[nH]c(-c2ccccc2)c1Cc1c(O)ccc2ccccc12 [Cambinol, cambinol]
IC50 (SIRT2 [6]): 51000 nM
IC50 (SIRT1 [5]): 56000 nM

NC(=O)c1cccnc1 [Nicotinamide, nicotinamide]
IC50 (SIRT1 [5]): 85000 nM

O=C(Nc1cnccc1Br)c1cccc(-c2ccc3ccccc3c2)c1 [compound 4]
IC50 (SIRT3 [7]; differing in vitro assays): > 100000 nM
IC50 (SIRT2 [6]): 600 nM
IC50 (SIRT1 [5]): > 100000 nM

CSc1ccc(CSc2cccc(C(=O)Nc3ccc(C#N)cc3)c2)cc1 [compound 5]
SIRT3 inhibition @ 10 μM (SIRT3 [7]; 10 μM): no inhibition
IC50 (SIRT2 [6]): 2400 nM
SIRT1 inhibition @ 10 μM (SIRT1 [5]; 10 μM): 3%

CC1(C)Cc2c(-c3ccc(Cl)cc3)n[nH]c2C(C(N)=O)C1 (stereo not shown) [compound 7]
IC50 (SIRT2 [6]): 1700 nM
IC50 (SIRT1 [5]): 800 nM

Cc1cc(C)nc(SCC(=O)Nc2ncc(Cc3cccc4ccccc34)s2)n1 [compound 8, SirReal2]
IC50 (SIRT6): > 200000 nM
IC50 (SIRT1 [5]): > 100000 nM

From article PMC6014686, “Thienopyrimidinone Based Sirtuin-2 (SIRT2)-Selective Inhibitors Bind in the Ligand Induced Selectivity Pocket” (Journal of Medicinal Chemistry, 2017)
